Data as given in ChEMBL document CHEMBL6103539, “A critical analysis of design, binding pattern and SAR of benzo-fused heteronuclear compounds as VEGFR-2 inhibitors” (Bioorg Med Chem, 2024).
Values belong to the compound of their own block, whether it stands above or below them.

Assays:
[1] = target: T1, Vascular endothelial growth factor receptor 2 (Homo sapiens, UniProt P35968); test: Inhibition of VEGFR-2 (unknown origin) at 1 uM by ELISA method relative to control
HeLa [2] = test: Cytotoxicity against human HeLa cells assessed as reduction in cell viability incubated for 72 hrs by CCK-8 assay; type: functional, cell-based
HT-29 = test: Cytotoxicity against human HT-29 cells assessed as reduction in cell viability incubated for 72 hrs by CCK-8 assay; type: functional, cell-based; details: HT-29, 72 h
[3] = Cytotoxicity against human HUVEC cells assessed as reduction in cell viability incubated for 72 hrs by CCK-8 assay; type: toxicity, cell-based
[4] = Cytotoxicity against human A549 cells assessed as reduction in cell viability incubated for 72 hrs by CCK-8 assay; type: toxicity, cell-based
[5] = Cytotoxicity against human MDA-MB-435 cells assessed as reduction in cell viability incubated for 72 hrs by CCK-8 assay; type: toxicity, cell-based
MCF7 [6] = test: Cytotoxicity against human MCF7 cells assessed as reduction in cell viability incubated for 48 hrs by MTT assay; type: functional, cell-based; details: MCF7, 48 h
[7] = target: T1, Vascular endothelial growth factor receptor 2; test: Inhibition of human VEGFR-2 by ELISA method
[8] = target: T1, Vascular endothelial growth factor receptor 2; test: Inhibition of VEGFR-2 in human MCF7 cells by ELISA method; type: cell-based
MCF7 [9] = test: Cytotoxicity against human MCF7 cells assessed as reduction in cell viability incubated for 48 hrs by SRB assay; type: functional, cell-based; details: MCF7, 48 h
[10] = target: T1, Vascular endothelial growth factor receptor 2; test: Inhibition of VEGFR2 in human MCF7 cells by horseradish peroxidase-coupled TMB substrate based ELISA; type: cell-based
[11] = target: T1, Vascular endothelial growth factor receptor 2; test: Inhibition of VEGFR-2 (unknown origin) at 1 uM using Poly(4:1 Glu, Tyr) as substrate by Kinase-Glo Max reagent based luminescence analysis relative to control
[12] = Antiproliferative activity against human HUVEC cells assessed as reduction in cell growth incubated for 48 hrs by MTT assay; type: toxicity, cell-based
NCI-H1975 = test: Antiproliferative activity against human NCI-H1975 cells assessed as reduction in cell growth incubated for 48 hrs by MTT assay; type: toxicity, cell-based; details: NCI-H1975, 48 h
A549 [13] = test: Antiproliferative activity against human A549 cells assessed as reduction in cell growth incubated for 48 hrs by MTT assay; type: toxicity, cell-based; details: A549, 48 h
HeLa [14] = test: Antiproliferative activity against human HeLa cells assessed as reduction in cell growth incubated for 48 hrs by MTT assay; type: toxicity, cell-based
MCF7 [15] = test: Antiproliferative activity against human MCF7 cells assessed as cell growth inhibition measured for 24 hrs by MTT assay; type: functional, cell-based; details: MCF7, 24 h
HepG2 [16] = test: Antiproliferative activity against human HepG2 cells assessed as cell growth inhibition measured for 24 hrs by MTT assay; type: functional, cell-based; details: HepG2, 24 h
HepG2 [17] = test: cells; details: Homo sapiens, HepG2, 72 h
Description: Cytotoxicity against human HepG2 cells assessed as reduction in cell viability incubated for 72 hrs by MTT assay

HCT-116 [18] = test: cells; details: Homo sapiens, HCT-116, 72 h
Description: Cytotoxicity against human HCT-116 cells assessed as reduction in cell viability incubated for 72 hrs by MTT assay

MCF7 [19] = test: cells; details: Homo sapiens, MCF7, 72 h
Description: Cytotoxicity against human MCF7 cells assessed as reduction in cell viability incubated for 72 hrs by MTT assay

[20] = target: T1, Vascular endothelial growth factor receptor 2; test: Inhibition of VEGFR-2 (unknown origin)
HCT-116 [21] = test: Anticancer activity against human HCT-116 cells; type: functional, cell-based
HepG2 [22] = test: Anticancer activity against human HepG2 cells; type: functional, cell-based
MCF7 [23] = test: Anticancer activity against human MCF7 cells; type: functional, cell-based
MCF7 [24] = test: Cytotoxicity against human MCF7 cells; type: functional, cell-based
A549 [25] = test: Cytotoxicity against human A549 cells; type: functional, cell-based
DU-145 = test: Cytotoxicity against human DU-145 cells; type: functional, cell-based
HCT-116 [26] = test: Antiproliferative activity against human HCT-116 cells assessed as cell growth inhibition measured for 24 hrs by MTT assay; type: functional, cell-based; details: HCT-116, 24 h
HepG2 [27] = test: Cytotoxicity against human HepG2 cells assessed as reduction in cell growth by MTT assay; type: functional, cell-based
HCT-116 [28] = test: Cytotoxicity against human HCT-116 cells assessed as reduction in cell growth by MTT assay; type: functional, cell-based
MCF7 [29] = test: Cytotoxicity against human MCF7 cells assessed as reduction in cell growth by MTT assay; type: functional, cell-based
MCF7 [30] = test: Growth inhibition of human MCF7 cells; type: functional

T1 sequence (P35968 whole entry): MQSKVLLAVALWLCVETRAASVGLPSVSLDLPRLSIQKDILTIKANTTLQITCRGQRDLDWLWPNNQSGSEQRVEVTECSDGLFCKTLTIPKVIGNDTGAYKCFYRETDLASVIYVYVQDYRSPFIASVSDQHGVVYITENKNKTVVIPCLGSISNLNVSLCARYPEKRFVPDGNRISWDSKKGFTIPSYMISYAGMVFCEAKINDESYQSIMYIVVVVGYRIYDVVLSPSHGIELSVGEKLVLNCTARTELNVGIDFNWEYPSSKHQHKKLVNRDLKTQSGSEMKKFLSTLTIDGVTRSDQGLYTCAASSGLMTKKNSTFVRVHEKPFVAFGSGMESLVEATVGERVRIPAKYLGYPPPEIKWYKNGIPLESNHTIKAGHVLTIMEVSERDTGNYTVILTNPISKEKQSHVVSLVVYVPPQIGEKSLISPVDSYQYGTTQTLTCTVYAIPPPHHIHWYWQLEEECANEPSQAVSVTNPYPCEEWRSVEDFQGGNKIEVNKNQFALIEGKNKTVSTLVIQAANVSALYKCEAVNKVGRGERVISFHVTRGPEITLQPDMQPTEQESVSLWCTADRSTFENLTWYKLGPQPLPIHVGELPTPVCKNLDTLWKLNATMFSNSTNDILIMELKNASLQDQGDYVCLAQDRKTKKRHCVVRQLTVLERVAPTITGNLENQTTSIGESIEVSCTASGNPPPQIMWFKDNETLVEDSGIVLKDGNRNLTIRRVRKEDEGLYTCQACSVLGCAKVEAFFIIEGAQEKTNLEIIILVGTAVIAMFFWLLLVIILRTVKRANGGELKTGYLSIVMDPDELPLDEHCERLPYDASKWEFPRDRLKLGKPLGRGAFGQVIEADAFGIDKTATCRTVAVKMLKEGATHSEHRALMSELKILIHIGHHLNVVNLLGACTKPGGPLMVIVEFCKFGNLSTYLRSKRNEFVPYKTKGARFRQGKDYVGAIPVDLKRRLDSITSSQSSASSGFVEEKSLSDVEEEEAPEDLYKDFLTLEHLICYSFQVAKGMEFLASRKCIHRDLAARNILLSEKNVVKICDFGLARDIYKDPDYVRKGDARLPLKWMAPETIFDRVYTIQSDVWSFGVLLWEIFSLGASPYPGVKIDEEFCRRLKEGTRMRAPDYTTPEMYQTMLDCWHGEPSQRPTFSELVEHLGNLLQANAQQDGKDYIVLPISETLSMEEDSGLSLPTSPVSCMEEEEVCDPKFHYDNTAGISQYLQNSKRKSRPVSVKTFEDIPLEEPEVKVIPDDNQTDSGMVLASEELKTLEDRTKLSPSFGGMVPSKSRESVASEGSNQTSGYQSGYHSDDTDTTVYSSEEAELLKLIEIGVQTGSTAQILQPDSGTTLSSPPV

Compound: COc1ccc2[nH]cc(C(=O)OCc3nc4ccccc4n3C)c2c1
inhibition [1]: 36.7%
IC50 (HeLa [2]): 0.26 µM
IC50 (HT-29): 0.26 µM
IC50 at 72 h [3]: 0.32 µM
IC50 at 72 h [4]: 0.3 µM
IC50 at 72 h [5]: 0.45 µM

Compound: O=C(OCc1nc2ccccc2[nH]1)c1c[nH]c2ccccc12
inhibition [1]: 34%
IC50 (HeLa [2]): 0.19 µM
IC50 (HT-29): 0.19 µM
IC50 at 72 h [3]: 0.56 µM
IC50 at 72 h [4]: 0.54 µM
IC50 at 72 h [5]: 0.37 µM

Compound: O=C(Nc1ccc(OC(F)(F)F)cc1)Nc1ccc2oc(-c3ccccc3Cl)nc2c1
inhibition [11]: 98.6%
IC50 at 48 h [12]: 8.46 µM
IC50 (NCI-H1975): 1.4 µM
IC50 (A549 [13]): 7.61 µM
IC50 (HeLa [14]): 0.28 µM

Compound: CCNC(=S)NS(=O)(=O)c1ccc(NC(=O)CCSc2nc3ccccc3o2)cc1
IC50 (HepG2 [17]): 8.1 µM
IC50 (HCT-116 [18]): 7.91 µM
IC50 (MCF7 [19]): 12.3 µM

Compound: O=C(CCSc1nc2ccccc2o1)Nc1ccc(S(=O)(=O)NC(=O)Nc2ccccc2)cc1
IC50 (HepG2 [17]): 8.75 µM
IC50 (HCT-116 [18]): 9.52 µM
IC50 (MCF7 [19]): 9.95 µM

Compound: COc1cc(/C=C2/C=C(c3nc4ccccc4[nH]3)NC2=O)cc(OC)c1OC
IC50 (MCF7 [24]): 7.2 µM
IC50 (A549 [25]): 8.3 µM
IC50 (DU-145): 7.7 µM

Compound: O=C(CSc1nc2ccccc2o1)Nc1ccc(C(=O)NC2CCCCC2)cc1
IC50 (MCF7 [15]): 7.2 µM
IC50 (HCT-116 [26]): 7.8 µM

Compound: Cc1c(C(=O)NNC(=S)Nc2ccc(Cl)cc2)nnn1Cc1nc2ccccc2[nH]1
IC50 (HepG2 [27]): 7.8 µM
IC50 (HCT-116 [28]): 8.34 µM
IC50 (MCF7 [29]): 6.81 µM

Compound: COc1cc(/C=C2/C=C(c3nc4ccccc4[nH]3)NC2=O)ccc1O
IC50 (MCF7 [24]): 7.3 µM
IC50 (A549 [25]): 9.6 µM
IC50 (DU-145): 8.7 µM

Compound: Cc1ccc2[nH]c(-c3ccc(C(=O)N/N=C/c4ccc(Cl)cc4Cl)cc3)nc2c1
GI (MCF7 [30]): 30.51 µM

The next lines start with results.

IC50 [7]: 0.0067 µM
IC50 [8]: 0.0067 µM
Compound: O=[N+]([O-])c1ccc(CNc2cccc(-c3nc4ccccc4[nH]3)c2)cc1
IC50 (MCF7 [6]): 3.37 µM

IC50 [10]: 0.19 µM
Compound: COc1cc(-c2nc3ccccc3s2)ccc1OCC(=O)N/N=C/c1ccc(O)cc1
IC50 (MCF7 [9]): 7.83 µM

IC50 [10]: 0.17 µM
Compound: COc1cc(/C=N/NC(=O)COc2ccc(-c3nc4ccccc4s3)cc2OC)ccc1O
IC50 (MCF7 [9]): 6.58 µM

IC50 (MCF7 [15]): 4 µM
IC50 (HepG2 [16]): 3.95 µM
Compound: COc1ccccc1NC(=O)c1ccc(NC(=O)CSc2nc3ccccc3o2)cc1

IC50 [7]: 0.0067 µM
IC50 [8]: 0.0089 µM
Compound: O=[N+]([O-])c1ccc(NC(=S)Nc2cccc(-c3nc4ccccc4[nH]3)c2)cc1
IC50 (MCF7 [6]): 5.84 µM

IC50 [20]: 0.091 µM
IC50 (HCT-116 [21]): 5.61 µM
IC50 (HepG2 [22]): 7.92 µM
IC50 (MCF7 [23]): 3.84 µM
Compound: O=C(CN1C(=O)S/C(=C\c2ccc(F)cc2)C1=O)Nc1nc2ccc([N+](=O)[O-])cc2s1

IC50 (HepG2 [17]): 9.95 µM
IC50 (HCT-116 [18]): 12.5 µM
IC50 (MCF7 [19]): 15.7 µM
Compound: CCNC(=S)NS(=O)(=O)c1ccc(NC(=O)CCSc2nc3cc(C)ccc3o2)cc1

IC50 (MCF7 [15]): 18.2 µM
IC50 (HepG2 [16]): 7.01 µM
Compound: Cc1ccc2oc(SCC(=O)Nc3ccc(C(=O)Nc4ccc(O)cc4)cc3)nc2c1

IC50 [7]: 0.0067 µM
IC50 [8]: 0.0068 µM
Compound: O=C(Nc1ccc([N+](=O)[O-])cc1)Nc1cccc(-c2nc3ccccc3[nH]2)c1
IC50 (MCF7 [6]): 7.18 µM

IC50 [10]: 0.18 µM
Compound: COc1cc(-c2nc3ccccc3s2)ccc1OCC(=O)N/N=C/c1ccc([N+](=O)[O-])cc1
IC50 (MCF7 [9]): 28.4 µM
